Test results taken from patent publication US9096643B2, “Cell-protective peptides and uses thereof” (priority 2010, dated 2015).
No end group written: not given here.

How the values were obtained:
[1] = tested on: neonatal rat CMs (heart cells); assay: Heart cell attachment on peptide-modified Az-chitosan coated coverslips (brightfield cell counts); assay type: cell-based, rat (Sprague-Dawley); settings: coated glass coverslips, 1, 3 and 5 days of incubation, FIG. 1
Method: Neonatal (1 to 2 day-old) Sprague-Dawley rats were euthanized according to the procedure approved by the University of Toronto Committee on Animal Care. […] The supernatant from 5 collagenase digests of the tissues was collected and centrifuged at 750 rpm (94 g) for 4 min, resuspended in culture medium and pre-plated into T75 flasks (Falcon) for 1 hour to separate the non-adherent cells (enriched CMs) from the adherent cells (non-myocytes). The enriched CMs were used in the studies. The CM culture medium consisted of Dulbecco's Modified Eagle Medium (DMEM) with 4.5 g/L glucose, 4 mM L-glutamine, 10% certified fetal bovine serum (FBS), 100 U/mL penicillin, 100 μg/mL streptomycin, and 10 mM 4-2-hydroxyethyl-1-piperazineethanesulfonic acid buffer (HEPES, Gibco/Invitrogen).
The surfaces used for microscopy analysis were created on circular 12 mm diameter glass coverslips (VWR). These were plasma treated (WS-400BZ-6NPP/Lite, Laurell Technologies) for 30 s. […]
The day before cells were ready to be seeded, the surfaces in the 12-well plates were sterilized by germicidal UV illumination overnight. […]
Brightfield images were taken with 10× magnification of surfaces with cells (N=3) to visualize the morphology and cell attachment (IX81, Olympus). […] The number of cells was then counted using the cell counting plug-in on ImageJ (NIH version 1.36b).

Lewis rats = assay: Subcutaneous implantation of cardiomyocyte/hydrogel constructs and histological assessment
Method: Cardiac constructs were made by encapsulation of neonatal Lewis rat cardiomyocytes in Az-chitosan-QHREDGS or Az-chitosan-RGDS. A total of 2×10^6 cardiomyocytes were resuspended in 15 μL of ice cold cardiomyocytes medium with 30% FBS for at least 10 min. These cells were then encapsulated in 100 μL of the hydrogel in transwell plates and constructs (2 mm thick and 6 mm in diameter) were produced. A total of 8 samples were made for each type of hydrogel, and 4 from each group were implanted, while the other 4 were retained as in vitro controls. Samples were cultured at 37° C. for 5 d before they were implanted in vivo.
Cardiac constructs described above were inserted subcutaneously into the abdomen of Lewis rats. Four samples were implanted for each type of hydrogel. […] Quantification of total SMA and Factor VIII was performed using ImageScope v10 (Aperio Technologies) and mean intensities were averaged for six fields for each sample and normalized to total area. […] Apoptosis was assessed using a TUNEL assay (Roche Applied Science) following the manufacturer's standard protocol.

[2] = tested on: Human ESC-derived cardiac cells (Hes2); assay: Caspase 3/7 assay of human ESC-derived cardiac cells; assay type: cell-based; settings: 50 μM, FIG. 20
Method: (§1) Human ESC-derived cardiac cell culture, were derived from Day 20 EBs, consisting of greater than 50% cardiomyocytes obtained by directed differentiation of human ES (Hes2) cells as described by Yang et al. (Nature 453, 524-528 (2008)). EBs were dissociated using Collagenase I (Invitrogen) for 2 hrs and 0.05% Trypsin-EDTA (Invitrogen) for 5 min and plated at 40000 cells/cm^2 onto 0.2% gelatin-coated plates in Stempro 34 medium supplemented with VEGF (10 ng/ml) and DKK1 (150 ng/ml). Cells were cultured in the presence of 50 μM QHREDGS, 50 μM DGQESHR (Biomatik) or PBS until they formed a beating monolayer, around 10 days. Peptides were replenished during media changes every 3 days. 100 μM H2O2 (Sigma, dissolved in PBS) was added to culture media for 10 min, washed, and analyzed immediately for CFDA-Live/PI-Dead. Live cells were counted using the cell counter plug in for ImageJ. 0.5 μM or 2.5 μM taxol (Sigma, dissolved in DMSO) was added to culture media for 24 hrs, and the extent of apoptosis was analyzed immediately using the Apo-ONE Homogeneous Caspase Assay (Promega), or TUNEL assay (Roche) as described above. A PBS control was used for H2O2 and DMSO control was used for taxol.

human iPS cells 0901B = assay: BrdU assay of iPS cell proliferation; assay type: cell-based; settings: 50 μM, 5 passages, FIG. 17
Method: (§2) After 5 passages in treatment, human iPS cells were passaged as described above in the presence of 50 μM QHREDGS, 50 μM DGQESHR (Biomatik), or PBS (Lonza) onto MEF plates and grown for 3 days. Cultures were pulsed for 1 hr with 10 μM BrdU (Sigma) and immediately analyzed for immunohistochemistry (see below). Ki67 (Millipore, 1:300) co-staining was used to differentiate MEFs from human iPS cells. All samples were counterstained with DAPI (300 nM, Sigma).

human iPS cells BJ1D = assay: BrdU assay of iPS cell proliferation; assay type: cell-based; settings: 50 μM, 5 passages, FIG. 16
Method: as §2

[3] = tested on: Rat neonatal cardiomyocytes; assay: Doxorubicin induced apoptosis and caspase activation (Western blot); assay type: cell-based; settings: 1 d, doses as low as 5 μM, FIG. 5B,C
Method: Rat neonatal cardiomyocytes were given doxorubicin (Dox) to induce apoptosis and PBS or peptide QHREDGS (1 d), Western blotting was conducted and levels assessed via densitometric analysis (Scion Image software).

[4] = tested on: Human ESC-derived cardiac cells (Hes2); assay: H2O2 exposure, CFDA-Live/PI-Dead of human ESC-derived cardiac cells; assay type: cell-based; settings: 50 μM, 100 μM H2O2 10 min, FIG. 19
Method: as §1

[5] = tested on: Human ESC-derived cardiac cells (Hes2); assay: TUNEL assay with cTnT co-localization of human ESC-derived cardiac cells; assay type: cell-based; settings: 50 μM, FIG. 21
Method: as §1

[6] = 7 days after subcutaneous implantation

Substance | cell adhesion / cell attachment to coated surface [1] | cardiomyocytes in implant (sarcomeric α-actinin, troponin I staining) (Lewis rats; [6]) | percentage of apoptotic cells (TUNEL) (Lewis rats; [6]) [%] | apoptotic cardiomyocytes (troponin I and TUNEL double staining) (Lewis rats; 7 days after subcutaneous implantation, vs RGDS modified hydrogel) | biomaterial degradation and cell infiltration (H&E) (Lewis rats; day 7 after subcutaneous implantation) | percentage of SMA+ myofibroblasts (Lewis rats; vs Az-chitosan-RGDS hydrogel) | reduction of basal apoptosis levels in cardiac cells (Caspase 3/7) [2] [fold] | rate of proliferation (BrdU incorporation, 1 hr pulse) (human iPS cells 0901B) | rate of proliferation (BrdU incorporation, 1 hr pulse) (human iPS cells BJ1D) | activation of caspases-3 and -6 [3] | viability of cardiac cells (% Live-CFDA/Dead-PI) [4] | reduction of basal apoptosis in cardiomyocytes (TUNEL/cTnT) [5]
Az-chitosan-QHREDGS: QHREDGS peptide covalently conjugated to Az-chitosan by EDC chemistry (also: covalently conjugated to Az-chitosan by EDC chemistry, site not given here) | significantly greater cell adhesion | larger areas of cardiomyocytes | ~1.5 | fewer apoptotic cardiomyocytes | less cell infiltration | significantly higher percentage of SMA+ myofibroblasts | – | – | – | – | – | –
QHREDGS (angiopoietin 1 peptide) | – | – | – | – | – | – | 2 | remained the same | remained the same | blocked | enhanced viability | greater than 10 fold
